From patent publication US8633164B2, “Antimicrobial peptides” (priority 2008, dated 2014)
No end group written: not given here.

Test system: LPS-induced cytokine expression in human mononuclear cells
Assay: Inhibition of LPS-induced cytokine secretion of human mononuclear cells
Format: cell-based
Conditions: comparison of Pep12, 17-1 and 19-1
Protocol: Human mononuclear cells (MNC): heparinized (20 IU/ml) blood obtained from healthy donors was mixed with an equal volume of Hank's balanced solution, layered over Ficoll, and centrifuged for 40 min (21° C., 500 g). The interphase layer of MNC was collected and washed twice in Hank's medium and then resuspended in RPMI 1640 supplemented with 2 mM L-glutamine, 100 U/ml penicillin, and 100 μg/ml streptomycin. MNC (200 μl/well; 5×10^6 cells/ml) were transferred into 96-well culture plates. Twenty microliters of a mixture containing LPS (100 ng/ml or 10 ng/ml) and Gra-pep (10:1 weight % excess) was added to each well. Supernatants were harvested after 4 h incubation at 37° C. under 5% CO2, and TNFα production was measured in a sandwich-ELISA. TNFα was determined in duplicate at two different dilutions and the values from two independent experiments were averaged.

GCKKFRRLKWKYKGKFWFWCG (GCKKFRRLKWKYKGKFWFWCG-NH2; cysteine pairing not given here) [Pep 19-1]
Inhibition of LPS-induced cytokine production: inhibits most strongly
